According to US20130035358A1, “Bis Aromatic Compounds for Use as LTC4 Synthase Inhibitors” (priority 2010, published 2013):
≈ marks a conversion by molar mass, not a printed value. Like-named read-outs stand apart in the source and are kept apart here.

Key:
[1] = target: T1, LTC4 synthase (Homo sapiens, UniProt Q16873); experiment: Test 1 in vitro assay: LTC4 synthase converts LTA4 to LTC4, HTRF detection; assay type: biochemical; design: made in house; host or cells: Pichia pastoris; conditions: Test 1 (unless otherwise indicated)
T1 sequence (Q16873 1-150): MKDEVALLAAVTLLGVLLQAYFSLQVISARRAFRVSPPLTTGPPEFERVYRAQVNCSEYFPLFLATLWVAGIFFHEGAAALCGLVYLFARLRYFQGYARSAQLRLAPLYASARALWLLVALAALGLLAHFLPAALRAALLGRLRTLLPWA
Protocol: In the assay, LTC4 synthase catalyses the reaction where the substrate LTA4 is converted to LTC4. Recombinant human LTC4 synthase is expressed in Piccia pastoralis and the purified enzyme is dissolved in 25 mM tris-buffer pH 7.8 supplemented with 0.1 mM glutathione (GSH) and stored at −80° C. The assay is performed in phosphate buffered saline (PBS) pH 7.4 and 5 mM GSH in 384-well plates.
The following is added chronologically to each well:
1. 48 μL LTC4 synthase in PBS with 5 mM GSH. The total protein concentration in this solution is 0.5 μg/mL. 2. 1 μL inhibitor in DMSO (final concentration 10 μM). 3. Incubation of the plate at room temperature for 10 min. 4. 1 μL LTA4 (final concentration 2.5 μM). 5. Incubation of the plate at room temperature for 5 min. 6. 10 μL of the incubation mixture is analysed using homogenous time resolved fluorescent (HTRF) detection.
IC50 values for title compounds of the examples are depicted in the tables hereinafter (where, they are the values obtained using Test 1, unless otherwise indicated).

[2] = Thermodynamic aqueous solubility in USP phosphate buffer (Example 25); assay type: physicochemical; conditions: USP phosphate buffer pH 7.4, 24 h at 20° C., LC-MS/MS, read-out: Thermodynamic aq solubility
Protocol: The method described here was developed to accurately determine the aqueous solubility of compounds of the invention in buffer solution at a given pH.
Solid material (1 mg) of test compound is added to a glass vial followed by 1 ml of buffer solution (pH 7.4 if another pH not is stated). The solution is left on an orbital shaker for 24 h at 20° C. After incubation, the remaining solid material is separated from solution and the solubility is quantified using LC-MS/MS.
Prepare 0.2 M monobasic potassium phosphate solution by dissolving 27.22 g of KH2PO4 (MW=136.09 g/mol) in water, dilute with water to 1000 mL.
Add 250 mL of the monobasic potassium phosphate solution in a 1000 mL volumetric flask together with 195.5 mL 0.2M NaOH (aq). Add water to 1000 mL. Check pH.
Compounds of the invention/examples to be tested were provided as solid material, weighed into glass vials (2 mL). Each vial contains approximately 1 mg solid compound, two vials/compound are prepared, i.e. duplicate samples of each compound. If a freshly prepared 10 mM DMSO stock solution was available, this solution was used for MS optimization and preparation of standards. If a DMSO-stock solution was not available, a 10 mM solution from solid material 1 mg was prepared.
• Test compounds are employed as solid material. Since duplicate samples are prepared for each compound, each test compound arrives in two vials (1+1 mg). Samples are denoted as sample 1 and 2. • Note amount of substance in each vial. Add USP phosphate buffer pH 7.4 (1 mL) to each sample vial and seal vials using screw caps. Determine whether the solutions are saturated or if compounds are dissolved, note appearance and time. Start incubation; the samples are incubated on an orbital shaker (450 rpm) at 20° C. for 24 hours.
• Take out the 1 mM DMSO-stock solutions of compounds that are to be tested from freezer. If no 1 mM solutions are available, use master solutions with concentration of 10 mM. Allow the solutions to thaw at rt. • Collect two 96-deep well plates, glass inserts, sealing film, and an 8-channel expandable pipette with tall tips. • Abort shaking after 24 hour. • Note if samples are saturated or if compounds have dissolved. • Transfer 720 μL of sample slurry from each sample vial into glass inserts in a 96-deep well plate using an 8-channel expandable pipette. Samples 1 and 2 are transferred to separate plates. Thus, all samples 1 are placed in one plate and all samples 2 in the second plate. • Seal the plates using sealing film. • Centrifuge the plates at 3000 rpm for 15 min at rt. Set acceleration to 9 and brake to 7 (9=fastest acc/brake, 0=slowest acc/brake). • Transfer the supernatants to new glass inserts using an 8-channel pipette, centrifuge samples a second time. • Repeat the procedure above, i.e. centrifuge samples a third time. • After the third centrifugation, transfer supernatant to glass vials, seal vials with screw caps. Control that the solutions are clear and that no particles are present in sample. If solid material is observed, an additional centrifugation step is performed. • Standards are prepared from DMSO-stock solutions (1 or 10 mM). For each compound, transfer […] 1 mM solution to a glass vial, add DMSO (90 μL) to reach a final concentration of 100 μM, seal with screw cap and mix solution quickly on a vortex mixer. Further dilute the 100 μM solution with a 1:1 mixture of acetonitrile and USP phosphate buffer (pH 7.4) to standards with concentration 1000, 500, 100, 25, 2, and 1 nM. Standards are prepared in test tubes.
• Place standards in autosampler. • Try out the dilution of solubility samples so that their response will be within the standard curve. Dilute solubility sample one (or two) with the 1:1 mixture of acetonitrile:buffer. […]

[3] = aqueous buffer, thermodynamic from solid

solubility thermodynamic at 24 h [2, 3] [µM] | IC50 ([1]; Table 2) [µM] | SMILES | further results
2210 (≈ 1200 µg/mL) | – | COc1ccc(C(=O)c2ccc(C(=O)c3ccc(N(CC4CC4)c4ccc(Cl)cc4)cn3)cc2C(=O)O)cc1 [1:4, 5-{5-[(4-Chlorophenyl)(cyclopropylmethyl)amino]picolinoyl}-2-(4-methoxy-benzoyl)benzoic acid] | –
2480 (≈ 1380 µg/mL) | – | COc1ccc(C(=O)c2ccc(C(=O)c3ccc(N(CC4CC4)c4ccc(Cl)cc4F)cn3)cc2C(=O)O)cc1 [1:5, 5-{5-[(4-Chloro-2-fluorophenyl)(cyclopropylmethyl)amino]picolinoyl}-2-(4-methoxybenzoyl)benzoic acid] | –
– | 0.018 | COc1cccc(C(=O)c2ccc(C(=O)c3ccc(N(CC4CC4)c4ccc(Cl)cc4)cn3)cc2C(=O)O)c1 [Example 13, 5-(5-((4-Chlorophenyl)(cyclopropylmethyl)amino)picolinoyl)-2-(3-methoxybenzoyl)benzoic acid] | –
1900 (≈ 924 µg/mL) | – | COc1cccc(C(=O)c2ccc(C(=O)c3ccc(Cc4ccc(Cl)cc4)cn3)cc2C(=O)O)c1 [Example 6, 5-(5-(4-Chlorobenzyl)picolinoyl)-2-(3-methoxybenzoyl)benzoic acid] | IC50 [1]: 0.155 µM

The next lines start with the compound.

SMILES | solubility thermodynamic at 24 h [2, 3] [µM] | IC50 ([1]; Table 2) [µM] | further results
CN(c1ccc(Cl)cc1)c1ccc(C(=O)c2ccc(C(=O)c3cccc(C(Cl)Cl)c3)c(C(=O)O)c2)nc1 [Example 2, 5-(5-((4-Chlorophenyl)(methyl)amino)picolinoyl)-2-(3-(dichloromethyl)benzoyl)-benzoic acid] | – | – | IC50 [1]: 0.034 µM
O=C(c1ccc(C(=O)c2ccc3c(c2)OCCO3)c(C(=O)O)c1)c1ccc(N(CC2CC2)c2ccc(Cl)cc2)cn1 [Example 4, 5-(5-((4-Chlorophenyl)(cyclopropylmethyl)amino)picolinoyl)-2-(2,3-dihydrobenzo-[b][1,4]dioxine-6-carbonyl)benzoic acid] | – | – | IC50 [1]: 0.021 µM
CN(c1ccc(Cl)cc1)c1ccc(C(=O)c2ccc(C(=O)C3CC3c3ccccc3)c(C(=O)O)c2)nc1 (centres unmarked) [Example 19, 5-(5-((4-Chlorophenyl)(methyl)amino)picolinoyl)-2-(2-phenylcyclopropanecarbonyl)benzoic acid] | – | 0.141 | –
CN(c1ccc(Cl)cc1)c1ccc(C(=O)c2ccc(C(=O)CC(C)(C)C)c(C(=O)O)c2)nc1 [Example 17, 5-(5-((4-Chlorophenyl)(methyl)amino)picolinoyl)-2-(3,3-dimethylbutanoyl)benzoic acid] | – | 0.235 | –
O=C(c1ccc(C(=O)C2(c3ccccc3)CC2)c(C(=O)O)c1)c1ccc(N(CC2CC2)c2ccc(Cl)cc2)cn1 [Example 8, 5-(5-((4-Chlorophenyl)(cyclopropylmethyl)amino)picolinoyl)-2-(1-phenylcyclopropanecarbonyl)benzoic acid] | 125 (≈ 68.9 µg/mL) | 0.041 | –
CN(c1ccc(Cl)cc1)c1ccc(C(=O)c2ccc(C(=O)C(C)(C)c3ccccc3)c(C(=O)O)c2)nc1 [Example 16, 5-(5-((4-Chlorophenyl)(methyl)amino)picolinoyl)-2-(2-methyl-2-phenylpropanoyl)benzoic acid] | – | 0.055 | –
CN(c1ccc(Cl)cc1)c1ccc(C(=O)c2ccc(C(=O)c3cccc(O)c3)c(C(=O)O)c2)nc1 [Example 7, 5-(5-((4-Chlorophenyl)(methyl)amino)picolinoyl)-2-(3-hydroxybenzoyl)benzoic acid] | – | – | IC50 [1]: 0.083 µM
CN(c1ccc(Cl)cc1)c1ccc(C(=O)c2ccc(C(=O)c3ccccc3)c(C(=O)O)c2)nc1 [Example 1:1, 2-Benzoyl-5-{5-[(4-chlorophenyl)(methyl)amino]picolinoyl}benzoic acid] | 2580 (≈ 1210 µg/mL) | – | –
CN(c1ccc(Cl)cc1)c1ccc(C(=O)c2ccc(C(=O)CC3CCCC3)c(C(=O)O)c2)nc1 [Example 20, 5-(5-((4-Chlorophenyl)(methyl)amino)picolinoyl)-2-(2-cyclopentylacetyl)benzoic acid] | – | 0.081 | –
CN(c1ccc(Cl)cc1)c1ccc(C(=O)c2ccc(C(=O)C3CC4CCC3C4)c(C(=O)O)c2)nc1 (centres unmarked) [Example 15, 2-(Bicyclo[2.2.1]heptane-2-carbonyl)-5-(5-((4-chlorophenyl)(methyl)amino)-picolinoyl)benzoic acid] | 1980 (≈ 969 µg/mL) | 0.094 | –
CN(c1ccc(Cl)cc1)c1ccc(C(=O)c2ccc(C(=O)C3(c4ccccc4)CC3)c(C(=O)O)c2)nc1 [1:19, 5-{5-[(4-Chlorophenyl)(methyl)amino]picolinoyl}-2-(1-phenylcyclopropyl-carbonyl)benzoic acid] | 680 (≈ 347 µg/mL) | – | –
CN(c1ccc(Cl)cc1)c1ccc(C(=O)c2ccc(C(=O)C34CC5CC(CC(C5)C3)C4)c(C(=O)O)c2)nc1 [Example 12, 2-(Adamantane-1-carbonyl)-5-(5-((4-chlorophenyl)(methyl)amino)picolinoyl)benzoic acid] | 15 (≈ 7.94 µg/mL) | 0.065 | –
CN(c1ccc(Cl)cc1)c1ccc(C(=O)c2ccc(C(=O)c3cccc(C=O)c3)c(C(=O)O)c2)nc1 [Example 3, 5-(5-((4-Chlorophenyl)(methyl)amino)picolinoyl)-2-(3-formylbenzoyl)benzoic acid] | – | – | IC50 [1]: 0.052 µM
CN(c1ccc(Cl)cc1)c1ccc(C(=O)c2ccc(C(=O)C3(c4ccccc4)CCCC3)c(C(=O)O)c2)nc1 [Example 11, 5-(5-((4-Chlorophenyl)(methyl)amino)picolinoyl)-2-(1-phenylcyclopentanecarbonyl)benzoic acid] | – | 0.076 | –
CN(c1ccc(Cl)cc1)c1ccc(C(=O)c2ccc(C(=O)C3(c4ccccc4)CCCCC3)c(C(=O)O)c2)nc1 [Example 9, 5-(5-((4-Chlorophenyl)(methyl)amino)picolinoyl)-2-(1-phenylcyclohexanecarbonyl)benzoic acid] | – | 0.032 | solubility thermodynamic at 24 h [2]: 7 µM (≈ 3.87 µg/mL)
COc1cccc(CC(=O)c2ccc(C(=O)c3ccc(N(C)c4ccc(Cl)cc4)cn3)cc2C(=O)O)c1 [Example 21] | – | 0.192 | –
COc1ccc(C2(C(=O)c3ccc(C(=O)c4ccc(N(C)c5ccc(Cl)cc5)cn4)cc3C(=O)O)CC2)cc1 [Example 10, 5-(5-((4-Chlorophenyl)(methyl)amino)picolinoyl)-2-(1-(4-methoxyphenyl)cyclopropanecarbonyl)benzoic acid] | 403 (≈ 218 µg/mL) | 0.022 | –
O=C(c1ccc(Cl)cc1)c1ccc(C(=O)c2ccc(C(=O)c3ccccc3)c(C(=O)O)c2)nc1 [Example 5, 2-Benzoyl-5-(5-(4-chlorobenzoyl)picolinoyl)benzoic acid] | – | – | IC50 [1]: 1.29 µM
CCCCCCC(=O)c1ccc(C(=O)c2ccc(N(C)c3ccc(Cl)cc3)cn2)cc1C(=O)O [1:17, 5-{5-[(4-Chlorophenyl)(methyl)amino]picolinoyl}-2-heptanoylbenzoic acid] | 153 (≈ 73.3 µg/mL) | – | –
